Where only a bound is given, the exact number is not on record here.

Usually IC50 stands for the point on the concentration scale where inhibition reaches its midpoint. A high value points to a need for much substance.

One assay has as its system SW48 cells. The experiment in a line: Proliferation assay SW48 (CellTiterGlo). The following applies: Homo sapiens, SW48, 96 h, SW48 colon carcinoma cells, 96 hours, CellTiterGlo; geometric mean of at least 2; read-out: Proliferation Assay SW48 GI50. Type of assay: cell-based. Summed up:
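Read-out is CellTiterGlo luminescence after 96 hours of compound exposure, with % growth calculated against day-0 and vehicle-treated ATP levels. SW48 seeded at 2,000 cells/well, dosed next day with eight 3-fold serial dilutions, 0.1% DMSO. GI50 reported as geometric mean, at least 2 replicates.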
Background: In ATP-based viability assays light output follows the ATP content of the culture.

The test system of another assay is DLD1-WRN-KO cells. In words: Proliferation assay DLD1-WRN-KO (CellTiterGlo, off-target effects). To be noted: 96 hours, geometric mean of at least 2. The format is cell-based. Summed up: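 DLD1 cells with CRISPR knockout of WRN were exposed overnight-seeded to eight 3-fold compound dilutions (0.1% DMSO) for 96 h at 37 °C. Viability was read as ATP by CellTiterGlo luminescence against a day-0 plate, giving GI50 and residual viability at top concentration.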

Assay [1] has as its target T1, WRN helicase (aa N517-P1238) (Homo sapiens, UniProt Q14191).
T1 construct: The core helicase motif of the WRN protein (aa N517-P1238) was produced for this assay; His (N); ZZ (N); 3C protease cleavage site (N); made in house; host or cells: Sf21 insect cells (baculovirus; virus and BIICs made in SF9)
In words: WRN ATPase assay (DNA dependent ATP hydrolysis, ADP-Glo). The format is biochemical. To be noted: 3 hours pre-incubation, 300 micromolar ATP, FLAP26 DNA; geometric mean of at least 2. In outline:
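DNA-dependent ATP hydrolysis detected as ADP by ADP-Glo luminescence, using 300 μM ATP, 0.2 nM FLAP26 substrate and 10 nM WRN aa N517-P1238 (Tris pH 7.5 buffer, 2 mM MgCl2, 50 mM NaCl). IC50s fitted from normalized duplicate half-log dilutions; reported as geometric means of at least 2 replicates.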
(In ADP-Glo the light output rises with the ADP produced.)

T1 sequence (Q14191 517-1238): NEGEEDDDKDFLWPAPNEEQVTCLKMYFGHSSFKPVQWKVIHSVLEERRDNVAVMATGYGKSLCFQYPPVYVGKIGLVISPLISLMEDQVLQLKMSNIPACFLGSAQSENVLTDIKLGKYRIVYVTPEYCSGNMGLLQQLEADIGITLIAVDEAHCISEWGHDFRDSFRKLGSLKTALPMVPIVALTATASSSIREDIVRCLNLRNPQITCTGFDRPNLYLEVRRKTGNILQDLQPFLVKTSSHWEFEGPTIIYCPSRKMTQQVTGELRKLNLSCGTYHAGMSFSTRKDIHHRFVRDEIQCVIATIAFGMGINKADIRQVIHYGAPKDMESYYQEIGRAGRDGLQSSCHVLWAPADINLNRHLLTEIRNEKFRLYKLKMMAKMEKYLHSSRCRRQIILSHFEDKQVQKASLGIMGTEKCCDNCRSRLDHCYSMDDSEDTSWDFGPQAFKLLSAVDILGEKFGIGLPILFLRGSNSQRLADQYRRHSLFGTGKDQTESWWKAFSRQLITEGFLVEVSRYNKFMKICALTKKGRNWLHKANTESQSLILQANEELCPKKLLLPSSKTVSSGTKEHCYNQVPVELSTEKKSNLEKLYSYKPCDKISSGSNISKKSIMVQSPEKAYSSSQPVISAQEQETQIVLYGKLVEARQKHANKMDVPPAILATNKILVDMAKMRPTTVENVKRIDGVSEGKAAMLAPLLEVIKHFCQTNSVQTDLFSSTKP

Turning to `Cc1c(N2CCN(C(=O)Nc3nccs3)CC2)c(=O)n2nc(C3=CCOCC3)nc2n1CC(=O)Nc1ccc(C(F)(F)F)cc1` [Example 29, 4-(2-(3,6-dihydro-2H-pyran-4-yl)-5-methyl-7-oxo-4-(2-oxo-2-((4-(trifluoromethyl)phenyl)amino)ethyl)-4,7-dihydro-[1,2,4]triazolo[1,5-a]pyrimidin-6-yl)-N-(thiazol-2-yl)piperazine-1-carboxamide], the GI50 in the assay with SW48 cells is 2000 nM; in the assay with DLD1-WRN-KO cells it was over 10000 nM. In assay [1], this molecule registered an IC50 of 100 nM.
For `CCc1ccc(NC(=O)Cn2c(C)c(N3CCN(C(C)=O)CC3)c(=O)n3nc(C4=CCOCC4)nc23)cc1Cl` [Example 30, 2-(6-(4-acetylpiperazin-1-yl)-2-(3,6-dihydro-2H-pyran-4-yl)-5-methyl-7-oxo-[1,2,4]triazolo[1,5-a]pyrimidin-4(7H)-yl)-N-(3-chloro-4-ethylphenyl)acetamide], in that order: 2000 nM, over 10000 nM and 100 nM.
Taken in the same sequence, the figures for `CCc1ccc(NC(=O)Cn2c(C)c(N3CCN(C(C)=O)CC3)c(=O)n3nc(C4=CCCCO4)nc23)cc1Cl` [Example 31, 2-(6-(4-acetylpiperazin-1-yl)-2-(3,4-dihydro-2H-pyran-6-yl)-5-methyl-7-oxo-[1,2,4]triazolo[1,5-a]pyrimidin-4(7H)-yl)-N-(3-chloro-4-ethylphenyl)acetamide] were 6000 nM, over 10000 nM and 200 nM.
With `CC(=O)N1CCN(c2c(C)n(CC(=O)Nc3ccc(C(F)(F)F)cc3Br)c3nc(C4=CCOCC4)nn3c2=O)CC1` [Example 32, 2-(6-(4-acetylpiperazin-1-yl)-2-(3,6-dihydro-2H-pyran-4-yl)-5-methyl-7-oxo-[1,2,4]triazolo[1,5-a]pyrimidin-4(7H)-yl)-N-(2-bromo-4-(trifluoromethyl)phenyl)acetamide], the GI50 is 3000 nM in the assay on SW48 cells and over 10000 nM in the assay on DLD1-WRN-KO cells. The IC50 in assay [1] came to 800 nM.
For `CCc1c(N2CCN(C(=O)CN)CC2)c(=O)n2nc(C3=CCC(OC)CC3)nc2n1CC(=O)Nc1ccc(C(F)(F)F)cc1` (stereo not drawn) [Example 33, 2-(5-ethyl-6-(4-glycylpiperazin-1-yl)-2-(4-methoxycyclohex-1-en-1-yl)-7-oxo-[1,2,4]triazolo[1,5-a]pyrimidin-4(7H)-yl)-N-(4-(trifluoromethyl)phenyl)acetamide], the results for the GI50 in the assay on SW48 cells and in the assay on DLD1-WRN-KO cells were 8000 nM and over 10000 nM, respectively. This molecule also showed an IC50 in assay [1] of 1000 nM.
Turning to `CCc1c(N2CCN(C(=O)c3ncnc(C)c3OC)CC2)c(=O)n2nc(C3=CCOCC3)nc2n1CC(=O)Nc1ccc(C(F)(F)F)cc1C` [Example 34, 2-(2-(3,6-dihydro-2H-pyran-4-yl)-5-ethyl-6-(4-(5-methoxy-6-methylpyrimidine-4-carbonyl)piperazin-1-yl)-7-oxo-[1,2,4]triazolo[1,5-a]pyrimidin-4(7H)-yl)-N-(2-methyl-4-(trifluoromethyl)phenyl)acetamide], the GI50 is 7000 nM in the assay on SW48 cells and over 10000 nM with DLD1-WRN-KO cells. In assay [1], the IC50 turned out to be 5000 nM.
Taken in the same sequence, the figures for `Cc1c(N2CCN(C(=O)c3c(O)ccc4ccnn34)CC2)c(=O)n2nc(C3=CCOCC3)nc2n1CC(=O)Nc1ccc(C(F)(F)F)cc1` [Example 35, 2-(2-(3,6-dihydro-2H-pyran-4-yl)-6-(4-(6-hydroxypyrazolo[1,5-a]pyridine-7-carbonyl)piperazin-1-yl)-5-methyl-7-oxo-[1,2,4]triazolo[1,5-a]pyrimidin-4(7H)-yl)-N-(4-(trifluoromethyl)phenyl)acetamide] were 300 nM, over 10000 nM and 40 nM.
Consider `Cc1c(N2CCN(C(=O)c3ccncc3O)CC2)c(=O)n2nc(C3=CCOCC3)nc2n1CC(=O)Nc1ccc(C(F)(F)F)cc1` [Example 36, 2-(2-(3,6-dihydro-2H-pyran-4-yl)-6-(4-(3-hydroxyisonicotinoyl)piperazin-1-yl)-5-methyl-7-oxo-[1,2,4]triazolo[1,5-a]pyrimidin-4(7H)-yl)-N-(4-(trifluoromethyl)phenyl)acetamide], for which the GI50 in the assay with SW48 cells and in the assay on DLD1-WRN-KO cells was over 10000 nM in each case. The same molecule gave an IC50 in assay [1] of 100 nM.
As to `CCc1c(N2CCN(C(=O)c3ncc4c(c3O)OCC4)CC2)c(=O)n2nc(C3=CCOCC3)nc2n1CC(=O)Nc1ccc(C(F)(F)F)cc1C` [Example 37, 2-(2-(3,6-dihydro-2H-pyran-4-yl)-5-ethyl-6-(4-(7-hydroxy-2,3-dihydrofuro[3,2-c]pyridine-6-carbonyl)piperazin-1-yl)-7-oxo-[1,2,4]triazolo[1,5-a]pyrimidin-4(7H)-yl)-N-(2-methyl-4-(trifluoromethyl)phenyl)acetamide], the GI50 is 90 nM with SW48 cells and over 10000 nM in the assay on DLD1-WRN-KO cells. The molecule further yielded an IC50 in assay [1] of 90 nM.
Regarding `CCc1c(N2CCN(C(=O)c3c(F)ccc(F)c3O)CC2)c(=O)n2nc(C3=CCCCO3)nc2n1CC(=O)Nc1ccc(C(F)(F)F)cc1` [Example 38, 2-(6-(4-(3,6-difluoro-2-hydroxybenzoyl)piperazin-1-yl)-2-(3,4-dihydro-2H-pyran-6-yl)-5-ethyl-7-oxo-[1,2,4]triazolo[1,5-a]pyrimidin-4(7H)-yl)-N-(4-(trifluoromethyl)phenyl)acetamide], the GI50 is 100 nM in the assay with SW48 cells and over 10000 nM in the assay with DLD1-WRN-KO cells. The IC50 in assay [1] was determined as 30 nM.
Taken in the same sequence, the figures for `CCc1c(N2CCN(C(=O)c3ccc(F)c(F)c3O)CC2)c(=O)n2nc(C3=CCCCO3)nc2n1CC(=O)Nc1ccc(C(F)(F)F)cc1` [Example 39, 2-(6-(4-(3,4-difluoro-2-hydroxybenzoyl)piperazin-1-yl)-2-(3,4-dihydro-2H-pyran-6-yl)-5-ethyl-7-oxo-[1,2,4]triazolo[1,5-a]pyrimidin-4(7H)-yl)-N-(4-(trifluoromethyl)phenyl)acetamide] were 300 nM, 4000 nM and 30 nM.
For `CCc1c(N2CCN(C(=O)c3c(O)ccc4ccncc34)CC2)c(=O)n2nc(C3=CCOCC3)nc2n1CC(=O)Nc1ccc(C(F)(F)F)cc1C` [Example 40, 2-(2-(3,6-dihydro-2H-pyran-4-yl)-5-ethyl-6-(4-(7-hydroxyisoquinoline-8-carbonyl)piperazin-1-yl)-7-oxo-[1,2,4]triazolo[1,5-a]pyrimidin-4(7H)-yl)-N-(2-methyl-4-(trifluoromethyl)phenyl)acetamide], in that order: 600 nM, over 10000 nM and 40 nM.
For `CCc1c(N2CCN(C(=O)c3ccnc(F)c3O)CC2)c(=O)n2nc(C3=CCOCC3)nc2n1CC(=O)Nc1ccc(C(F)(F)F)cc1Cl` [Example 42, N-(2-chloro-4-(trifluoromethyl)phenyl)-2-(2-(3,6-dihydro-2H-pyran-4-yl)-5-ethyl-6-(4-(2-fluoro-3-hydroxyisonicotinoyl)piperazin-1-yl)-7-oxo-[1,2,4]triazolo[1,5-a]pyrimidin-4(7H)-yl)acetamide], in that order: 500 nM, over 10000 nM and 70 nM.
